Reference: patent publication US20250179023A1, “HOLOSYMMETRIC BIPHENYL DERIVATIVE, AND PREPARATION METHOD THEREFOR AND USE THEREOF” (Abbisko Therapeutics Co., Ltd., priority 2022, published 2025)

Key:
[1] = Pharmacokinetics in mice (exposure and oral availability); format: in vivo; conditions: male, mouse, ICR mice; for bioavailability: PO (10 mpk) vs IV (2 mpk), read-out: Oral availability (F %)
From the text: (§1) The purpose of this study is to study the pharmacokinetic behaviors of some compounds of the present invention, and administration routes were: single per oral administration (PO) or intravenous injection (IV) to ICR mice or rats.
(§2) The compounds used in this test were compounds of specific examples of the present invention and the comparative compounds listed.
ICR mice male N=9 original source: Shanghai Sippr-BK Laboratory Animal Co. Ltd.
(§3) The compounds were each dissolved in a corresponding vehicle, mixed well by shaking and subjected to ultrasonic treatment to obtain colorless clear solutions. 9 mice and 3 rats were orally administered with the solution after fasting overnight. The mice were dosed at 10 mg/kg (or 2 mg/kg by IV) and the rats were dosed at 5 mg/kg (or 1 mg/kg by IV).
(§4) With about 90 μL/time point, blood was drawn from the submaxillary vein, and heparin sodium was added for anticoagulation. The blood samples were placed onto the ice and centrifuged (centrifugation conditions: 8000 rpm, 6 min, 2-8° C.) within 1 hr to isolate the plasmas. The time points for blood sampling were at 0 hrs, 0.25 hrs, 0.5 hrs, 1 hr, 2 hrs, 4 hrs, 6 hrs, 8 hrs and 24 hrs after administration. The samples were stored in a refrigerator at −20° C.
(§5) 40 μL of plasma sample was added to 160 μL of cold acetonitrile containing an internal standard, and the mixture was vortexed for 3 min and centrifuged at 11,000 rpm for 5 min. 100 μL of the supernate was added to 100 μL of water, and 5 μL of the mixed solution was loaded for LC-MS/MS analysis. For comparative compounds 1, 3, 5, the prodrug compounds and corresponding prototype compounds 2, 4, 6 were all analyzed, and specific analysis results are shown in Table 4.

[2] = Caco-2 membrane permeability test; conditions: human, Caco-2, pH 7.4
Description: (§6) The permeability and the efflux ratio of the compounds of the examples of the present invention and the comparative compounds were evaluated using a Caco-2 cell model in this experiment. The specific process was as follows: • 1) The Caco-2 cell culture medium was modified Eagle's medium (MEM) containing 10% inactivated fetal bovine serum and 1% nonessential amino acids.
(§7) Working solutions were obtained by diluting with Hank's balanced salt solution (HBSS, Invitrogen) containing 25 mM HEPES (pH 7.4). The detection concentration of the test compound was 10 μM. This study was a two-way permeation experiment from the apical side to the basolateral side (A−B) and from the basolateral side to the apical side (B−A), and a 90-minute incubation at 37° C. was required. After the incubation, the samples diluted with buffer were detected by LC-MS/MS. The concentrations of the compounds were quantified using a standard curve. • 4) Apparent permeability coefficient Papp value (cm/s):

[3] = Pharmacokinetics in rats (exposure and oral availability); format: in vivo; conditions: male, ICR, rat; for bioavailability: PO (5 mpk) vs IV (1 mpk), read-out: Oral availability (F %)
From the text: as §1, §2
ICR rats male N=3 original source: Shanghai Sippr-BK Laboratory Animal Co. Ltd.
as §3, §4, §5

Caco-2 cells [4] = system: Caco-2 cells
Description: as §6, §7

in vitro = conditions: human, Caco-2, pH 7.4
Description: as §6, §7

PD-1/PD-L1 interaction = PD-1/PD-L1 interaction (Homo sapiens (Human), UniProt Q9NZQ7); assay: PD1-PDL1 HTRF binding activity test; conditions: Cisbio PD-1/PD-L1 binding assay kit
Description: The effect of compounds of the examples of the present invention on the PD-1/PD-L1 interaction was determined by the PD-1/PD-L1 binding assay kit from Cisbio (#64ICP01PEG or 64ICP01PEH).

[5] = target: PD-1/PD-L1 interaction (Jurkat/NF-κB-luc/PD1 cells cocultured with Raji-PD-L1 cells) (Homo sapiens (Human), UniProt Q9NZQ7); assay: Jurkat reporter gene cellular assay; format: cell-based; conditions: NF-κB-luc reporter activation fold, OKT3 1 μg/mL, 6 hrs; read-out: Cell activity EC50
Description: The effect of compounds of the examples of the present invention on the PD-1/PD-L1 interaction expressed on cell surfaces and the related influence on T cell functions were determined by a Jurkat reporter gene cellular assay. Briefly, the reporter gene plasmid of NF-κB-luc and the plasmid of human PD-1 were transfected into Jurkat cells to establish a stably transfected cell line capable of stably expressing both PD-1 and NF-κB-Luc reporter genes; the expression level of PD-1 on the cell surface was confirmed by flow cytometry; and the expression of the reporter gene was confirmed via the response of the reporter gene stimulated by OKT-3 and Raji cells.
In addition, the plasmid of human PD-L1 was transfected into Raji cells to obtain a cell line capable of stably expressing PD-L1. Jurkat/NF-κB-luc/PD1 cells and Raji-PD-L1 cells were then cocultured and stimulated with OKT-3. On this basis, the compounds were added, and the enhancement of the signal pathway of T cell activation by the inhibitory effect of the compounds on the PD-1/PD-L1 interaction was evaluated by readings of reporter gene responses.

Caco-2 cells [6] = assay: Caco-2 membrane permeability test; conditions: Caco-2, summary of Table 2
Description: as §6, §7

[7] = 10 mg/kg, PO (10 mpk), dosed compound detected in plasma
[8] = 5 mg/kg, PO (5 mpk), dosed compound detected in plasma

Sequence of PD-1/PD-L1 interaction (Q9NZQ7 19-238): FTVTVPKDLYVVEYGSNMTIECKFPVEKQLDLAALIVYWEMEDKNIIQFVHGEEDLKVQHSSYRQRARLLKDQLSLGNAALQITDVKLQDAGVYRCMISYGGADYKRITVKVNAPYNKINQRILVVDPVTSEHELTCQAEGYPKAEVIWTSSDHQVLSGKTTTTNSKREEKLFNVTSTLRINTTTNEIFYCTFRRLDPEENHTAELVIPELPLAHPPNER
Sequence of PD-1/PD-L1 interaction (Jurkat/NF-κB-luc/PD1 cells cocultured with Raji-PD-L1 cells) (Q9NZQ7 19-290): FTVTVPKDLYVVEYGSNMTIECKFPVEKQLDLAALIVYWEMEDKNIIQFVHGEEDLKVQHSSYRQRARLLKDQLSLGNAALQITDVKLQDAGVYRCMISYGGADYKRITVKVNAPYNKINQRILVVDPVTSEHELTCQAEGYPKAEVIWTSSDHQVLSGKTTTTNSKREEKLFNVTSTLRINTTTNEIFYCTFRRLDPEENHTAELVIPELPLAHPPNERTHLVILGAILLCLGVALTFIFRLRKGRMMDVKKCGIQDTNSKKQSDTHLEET

Structure (SMILES) | Cmax [1, 7] | Papp A→B at 90 min, 10 μM [2] | Papp B→A at 90 min, 10 μM [2] | bioavailability ([1]; plasma, 10 mg/kg) | IC50 (PD-1/PD-L1 interaction) | EC50 [5] | efflux ratio at 90 min, 10 μM [2] | also measured
COC(=O)[C@H]1CCN(Cc2cnc(C(=O)Nc3cccc(-c4cccc(NC(=O)c5cc(C6CC6)c(CN6CC[C@H](C(=O)OC)C6)cn5)c4C)c3C)cc2C2CC2)C1 [compound 5] | 30.4 ng/mL | < 1.79 ×10⁻⁶ cm/s | < 0.65 ×10⁻⁶ cm/s |  |  |  |  | 
COC(=O)[C@@H](CO)NCc1cnc(C(=O)Nc2cccc(-c3cccc(NC(=O)c4cc(C5CC5)c(CN[C@H](CO)C(=O)OC)cn4)c3C)c2C)cc1C1CC1 [compound 1, reference compound] |  | < 2.28 ×10⁻⁶ cm/s | < 1.85 ×10⁻⁶ cm/s | 0% |  |  |  | bioavailability ([3]; plasma, 5 mg/kg): 0%
CC[C@H]1OC(=O)[C@H](C)[C@@H](O[C@H]2C[C@@](C)(OC)[C@@H](O)[C@H](C)O2)[C@H](C)[C@@H](O[C@@H]2O[C@H](C)C[C@H](N(C)C)[C@H]2O)[C@](C)(O)C[C@@H](C)C(=O)[C@H](C)[C@@H](O)[C@]1(C)O [Erythromycin, erythromycin] |  |  |  |  |  |  |  | Evaluation of permeability (Caco-2 cells [4]): High efflux; Papp A→B at 90 min, 10 μM (in vitro): 0.2 ×10⁻⁶ cm/s; Papp B→A at 90 min, 10 μM (in vitro): 21.6 ×10⁻⁶ cm/s; efflux ratio at 90 min (in vitro): 107
Cc1c(NC(=O)c2cc(C3CC3)c(CNC34CCC(C(=O)O)(CC3)CC4)cn2)cccc1-c1cccc(NC(=O)c2cc(C3CC3)c(CNC34CCC(C(=O)O)(CC3)CC4)cn2)c1C [Example 1, 4-(((6-((3′-(5-(((4-carboxybicyclo[2.2.2]octan-1-yl)amino)methyl) -4-cyclopropylpicolinamido)-2,2′-dimethyl-[1,1′-biphenyl]-3-yl)carbamoyl)-4-cyclopropylpyridin-3-yl)methyl)amino)bicyclo[2.2.2]octane-1-carboxylic acid] | 1910 ng/mL | 2.46 ×10⁻⁶ cm/s | 16.5 ×10⁻⁶ cm/s | 19.5% | 2.56 nM | 135 nM | 6.75 | AUC(0-t) [1, 7]: 8790 ng·h/mL; AUC(0-t) ([1]; plasma, 2 mg/kg, IV (2 mpk)): 9000 ng·h/mL; Cmax ([1]; plasma, 2 mg/kg, IV (2 mpk)): 4000 ng/mL; AUC(0-t) [3, 8]: 2220 ng·h/mL; Cmax [3, 8]: 426 ng/mL; AUC(0-t) ([3]; plasma, 1 mg/kg, IV (1 mpk)): 2350 ng·h/mL; Cmax ([3]; plasma, 1 mg/kg, IV (1 mpk)): 3540 ng/mL; bioavailability ([3]; plasma, 5 mg/kg): 18.9%
Cc1c(NC(=O)c2cc(C3CC3)c(CN3CC[C@H](C(=O)O)C3)cn2)cccc1-c1cccc(NC(=O)c2cc(C3CC3)c(CN3CC[C@H](C(=O)O)C3)cn2)c1C [compound 6] | 46.2 ng/mL | 0.34 ×10⁻⁶ cm/s | 5.51 ×10⁻⁶ cm/s |  |  |  | 16.3 | AUC(0-t) [1, 7]: 147 ng·h/mL; A−B membrane permeability (in words) (Caco-2 cells [6]): poor membrane permeability
Cc1c(NC(=O)c2cc(C3CC3)c(CN(C)C34CCC(C(=O)O)(CC3)C4)cn2)cccc1-c1cccc(NC(=O)c2cc(C3CC3)c(CN(C)C34CCC(C(=O)O)(CC3)C4)cn2)c1C [Example 3, 4,4′-((((((2,2′-dimethyl-[1,1′-biphenyl]-3,3′-diyl)bis(azanediyl))bis(carbonyl))bis(4-cyclopropylpyridine-6,3-diyl))bis(methylene))bis(methylazanediyl))bis(bicyclo[2.2.1]heptane-1-carboxylic acid)] |  |  |  |  | 4.62 nM | 1380 nM |  | 
Cc1c(NC(=O)c2cc(C3CC3)c(CN[C@H](CO)C(=O)O)cn2)cccc1-c1cccc(NC(=O)c2cc(C3CC3)c(CN[C@H](CO)C(=O)O)cn2)c1C [compound 2, reference compound] |  | 0.67 ×10⁻⁶ cm/s | 0.36 ×10⁻⁶ cm/s | 0% |  |  | 0.53 | AUC(0-t) ([1]; plasma, 2 mg/kg, IV (2 mpk)): 2360 ng·h/mL; Cmax ([1]; plasma, 2 mg/kg, IV (2 mpk)): 5640 ng/mL; AUC(0-t) ([3]; plasma, 1 mg/kg, IV (1 mpk)): 7640 ng·h/mL; Cmax ([3]; plasma, 1 mg/kg, IV (1 mpk)): 13200 ng/mL; A−B membrane permeability (in words) (Caco-2 cells [6]): poor membrane permeability
Cc1c(NC(=O)c2cc(C3CC3)c(CNCC34CCC(C(=O)O)(CC3)C4)cn2)cccc1-c1cccc(NC(=O)c2cc(C3CC3)c(CNCC34CCC(C(=O)O)(CC3)C4)cn2)c1C [Example 4, 4,4′-(((((((2,2′-dimethyl-[1,1′-biphenyl]-3,3′-diyl)bis(azanediyl))bis(carbonyl))bis(4-cyclopropylpyridine-6,3-diyl))bis(methylene))bis(azanediyl))bis(methylene))bis(bicyclo[2.2.1]heptane-1-carboxylic acid)] | 4550 ng/mL | 9.79 ×10⁻⁶ cm/s | 21.7 ×10⁻⁶ cm/s | 57.5% | 1.46 nM | 247 nM | 2.21 | AUC(0-t) [1, 7]: 17600 ng·h/mL; AUC(0-t) ([1]; plasma, 2 mg/kg, IV (2 mpk)): 6110 ng·h/mL; Cmax ([1]; plasma, 2 mg/kg, IV (2 mpk)): 3520 ng/mL; AUC(0-t) [3, 8]: 4840 ng·h/mL; Cmax [3, 8]: 1980 ng/mL; AUC(0-t) ([3]; plasma, 1 mg/kg, IV (1 mpk)): 2200 ng·h/mL; Cmax ([3]; plasma, 1 mg/kg, IV (1 mpk)): 1860 ng/mL; bioavailability ([3]; plasma, 5 mg/kg): 44%
COCCc1ccc(OCC(O)CNC(C)C)cc1 (centres unmarked) [Metoprolol, metoprolol] |  |  |  |  |  |  |  | Evaluation of permeability (Caco-2 cells [4]): High; Papp A→B at 90 min, 10 μM (in vitro): 24.7 ×10⁻⁶ cm/s; Papp B→A at 90 min, 10 μM (in vitro): 31.1 ×10⁻⁶ cm/s; efflux ratio at 90 min (in vitro): 1.26
CCOC(=O)CNCc1cnc(C(=O)Nc2cccc(-c3cccc(NC(=O)c4cc(C5CC5)c(CNCC(=O)OCC)cn4)c3C)c2C)cc1C1CC1 [compound 3, reference compound] |  |  |  | 0% |  |  |  | 
Cc1c(NC(=O)c2cc(C3CC3)c(CNCC(=O)O)cn2)cccc1-c1cccc(NC(=O)c2cc(C3CC3)c(CNCC(=O)O)cn2)c1C [compound 4] |  | < 0.24 ×10⁻⁶ cm/s | 0.98 ×10⁻⁶ cm/s |  |  |  |  | A−B membrane permeability (in words) (Caco-2 cells [6]): poor membrane permeability
Cc1c(NC(=O)c2cc(C3CC3)c(CNC34CCC(C(=O)O)(CC3)C4)cn2)cccc1-c1cccc(NC(=O)c2cc(C3CC3)c(CNC34CCC(C(=O)O)(CC3)C4)cn2)c1C [Example 2, 4,4′-((((((2,2′-dimethyl-[1,1′-biphenyl]-3,3′-diyl)bis(azanediyl))bis(carbonyl))bis (4-cyclopropylpyridine-6,3-diyl))bis(methylene))bis(azanediyl))bis(bicyclo[2.2.1]heptane-1-carboxylic acid)] |  |  |  |  | 3.67 nM | 151 nM |  | 
